According to ChEMBL document CHEMBL3046694, “3D QSAR STUDIES OF INHIBITORS OF EPIDERMAL GROWTH FACTOR RECEPTOR [EGFR] USING CoMFA AND GFA METHODOLOGIES” (Med Chem Res, 2004):

molecular target: Epidermal growth factor receptor (Homo sapiens, UniProt P00533); assay: Inhibition of EGFR (unknown origin)
Sequence (P00533 whole entry): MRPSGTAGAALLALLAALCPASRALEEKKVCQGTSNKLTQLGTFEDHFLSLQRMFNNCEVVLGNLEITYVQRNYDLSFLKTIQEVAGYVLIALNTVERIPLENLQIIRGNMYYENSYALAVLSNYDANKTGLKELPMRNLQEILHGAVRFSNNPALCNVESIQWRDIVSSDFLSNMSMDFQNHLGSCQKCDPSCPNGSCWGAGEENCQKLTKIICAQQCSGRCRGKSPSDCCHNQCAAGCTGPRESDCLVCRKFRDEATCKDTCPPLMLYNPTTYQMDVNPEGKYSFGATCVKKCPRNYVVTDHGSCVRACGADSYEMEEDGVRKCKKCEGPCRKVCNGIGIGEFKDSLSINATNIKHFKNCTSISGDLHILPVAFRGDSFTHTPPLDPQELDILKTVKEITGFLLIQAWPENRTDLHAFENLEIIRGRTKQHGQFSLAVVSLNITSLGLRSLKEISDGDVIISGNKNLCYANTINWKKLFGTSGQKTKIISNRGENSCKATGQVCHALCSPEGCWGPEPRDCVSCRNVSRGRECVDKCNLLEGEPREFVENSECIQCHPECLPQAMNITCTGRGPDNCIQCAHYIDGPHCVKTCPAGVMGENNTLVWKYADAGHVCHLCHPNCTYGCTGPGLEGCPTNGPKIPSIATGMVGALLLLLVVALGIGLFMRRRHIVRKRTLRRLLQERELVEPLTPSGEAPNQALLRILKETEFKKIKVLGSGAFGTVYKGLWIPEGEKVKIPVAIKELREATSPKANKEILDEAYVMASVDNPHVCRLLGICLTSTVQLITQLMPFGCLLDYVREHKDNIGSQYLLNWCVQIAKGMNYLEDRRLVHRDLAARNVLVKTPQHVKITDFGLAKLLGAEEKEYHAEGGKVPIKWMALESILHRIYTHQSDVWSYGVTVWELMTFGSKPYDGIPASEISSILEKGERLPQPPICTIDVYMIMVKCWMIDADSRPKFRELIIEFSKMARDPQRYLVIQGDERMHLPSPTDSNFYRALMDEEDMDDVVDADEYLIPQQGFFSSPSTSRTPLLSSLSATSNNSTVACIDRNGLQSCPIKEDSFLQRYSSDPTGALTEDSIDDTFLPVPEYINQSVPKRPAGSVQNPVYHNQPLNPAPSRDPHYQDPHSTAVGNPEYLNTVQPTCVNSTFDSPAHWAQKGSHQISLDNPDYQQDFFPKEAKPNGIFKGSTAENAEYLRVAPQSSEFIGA

SMILES | IC50 [nM]
COCCOCC#CC(=O)Nc1ccc2ncc(C#N)c(Nc3cccc(Br)c3)c2c1 | 930
C=CC(=O)Nc1cc2c(Nc3cccc(Br)c3)c(C#N)cnc2cc1OC | 810
C=CC(=O)Nc1ccc2ncc(C#N)c(Nc3cccc(Br)c3)c2c1 | 590
CN(C)C/C=C/C(=O)Nc1ccc2ncc(C#N)c(Nc3ccc(F)c(Cl)c3)c2c1 | 650
COCC#CC(=O)Nc1cc2c(Nc3cccc(Br)c3)c(C#N)cnc2cc1OC | 791
COc1cc2ncc(C#N)c(Nc3cccc(Br)c3)c2cc1NC(=O)/C=C/CN(C)C | 790
CC#CC(=O)Nc1ccc2ncc(C#N)c(Nc3cccc(Br)c3)c2c1 | 940
N#Cc1cnc2ccc(NC(=O)C#CCN3CCSCC3)cc2c1Nc1cccc(Br)c1 | 550
C=C(CN(C)C)C(=O)Nc1cc2c(Nc3ccc(F)c(Cl)c3)c(C#N)cnc2cc1OCC | 560
COCC#CC(=O)Nc1ccc2ncc(C#N)c(Nc3cccc(Br)c3)c2c1 | 960

The next compounds have a lower IC50 than those just listed; values first:

IC50 [nM] | SMILES
90 | COc1cc2ncc(C#N)c(Nc3cccc(Br)c3)c2cc1NC(=O)C#CCN(C)C
190 | CC#CC(=O)Nc1cc2c(Nc3cccc(Br)c3)c(C#N)cnc2cc1OC
310 | CN(C)C/C=C/C(=O)Nc1ccc2ncc(C#N)c(Nc3cccc(Br)c3)c2c1
130 | CCCNCC#CC(=O)Nc1ccc2ncc(C#N)c(Nc3cccc(Br)c3)c2c1
150 | COC[C@@H]1CCCN1CC#CC(=O)Nc1ccc2ncc(C#N)c(Nc3cccc(Br)c3)c2c1
